# Active and inactive are the calls of the source. For most assays here, no stated cut-off is given here; in the data, actives have a measured EC50 and inactives only a lower limit.
# Assays:
# [1] = Trypanosoma cruzi growth suppression in host cells – NIH3T3 host cells, beta-gal luminescence, confirmation (AID 2044); format: functional, cell-based;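 further: intracellular parasites grown in NIH/3T3 mouse fibroblasts as host cells; luminescent beta-galactosidase reporter signal from transgenic T. cruzi replicating inside host cells; inhibitors lower the luminescence signal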
# [2] = NIH3T3 cell viability loss – ATP luminescence, mouse fibroblasts, counter-screen, dose response (AID 2010); format: functional, cell-based;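 further: cells exposed to compound for about 90 hours before reading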
# [3] = tested on: Streptococcus sp. 'group A'; test: Streptococcus pyogenes SK(-)GAS viability under kanamycin – luminescence, BacTiterGlo, confirmation, counter-screen for streptokinase expression inhibitor project, dose response (AID 1900); format: functional, organism-based
# [4] = tested on: Streptococcus; test: GAS UMAA2166 growth inhibition – luminescence, BacTiterGlo, counter-screen for streptokinase expression inhibitor project, dose response (AID 1915); format: functional, organism-based;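 further: potency for reduction of bacterial viability or growth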
# [5] = target: T1, Streptokinase A (Streptococcus pyogenes serotype M1, UniProt P10520); test: viability-normalized secreted streptokinase activity reduction – plasminogen activation absorbance, OD405, dose response (AID 1914); format: functional, Streptococcus pyogenes M1 GAS;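 further: secreted streptokinase activity via plasminogen activation per viability signal from cell pellet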
# T1 sequence (P10520 whole entry): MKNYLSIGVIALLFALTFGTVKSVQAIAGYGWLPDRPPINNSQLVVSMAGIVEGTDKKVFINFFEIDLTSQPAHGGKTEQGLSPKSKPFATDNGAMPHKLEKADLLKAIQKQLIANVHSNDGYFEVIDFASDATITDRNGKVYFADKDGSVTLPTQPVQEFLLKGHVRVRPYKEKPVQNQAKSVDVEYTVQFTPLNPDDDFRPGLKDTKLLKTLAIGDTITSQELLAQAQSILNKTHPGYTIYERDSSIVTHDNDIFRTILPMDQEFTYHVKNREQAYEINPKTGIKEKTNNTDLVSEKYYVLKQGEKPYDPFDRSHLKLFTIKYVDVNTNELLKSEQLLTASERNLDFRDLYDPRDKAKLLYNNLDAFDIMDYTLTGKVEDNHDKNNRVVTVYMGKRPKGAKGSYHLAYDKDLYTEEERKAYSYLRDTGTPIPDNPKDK
# [6] = target: T2, Heat shock factor protein 1 (Mus musculus, UniProt P38532); test: decrease of HSF1-responsive luciferase luminescence – cell-based, NIH3T3, dose retest, confirmation (AID 2382); format: functional;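 further: NIH3T3 fibroblasts with HSF1-driven luciferase reporter stressed by proteasome inhibitor MG132; luminescence from HSF1-driven luciferase expression after 8 hours of MG132 stress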
# T2 sequence (P38532 whole entry): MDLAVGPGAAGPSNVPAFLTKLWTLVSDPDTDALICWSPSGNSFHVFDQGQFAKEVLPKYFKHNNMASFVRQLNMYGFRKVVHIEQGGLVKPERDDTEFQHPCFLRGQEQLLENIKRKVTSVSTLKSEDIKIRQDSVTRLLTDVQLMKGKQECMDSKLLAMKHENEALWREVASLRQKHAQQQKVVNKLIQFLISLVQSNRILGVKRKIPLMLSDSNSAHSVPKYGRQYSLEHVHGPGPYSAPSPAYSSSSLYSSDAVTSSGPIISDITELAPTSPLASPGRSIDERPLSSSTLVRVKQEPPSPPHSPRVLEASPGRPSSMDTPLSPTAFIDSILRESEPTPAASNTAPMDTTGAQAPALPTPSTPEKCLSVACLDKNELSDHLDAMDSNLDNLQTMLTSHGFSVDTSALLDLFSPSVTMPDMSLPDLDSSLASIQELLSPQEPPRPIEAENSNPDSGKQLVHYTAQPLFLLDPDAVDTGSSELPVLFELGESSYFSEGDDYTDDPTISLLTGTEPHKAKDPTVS
# [7] = target: Cytochrome P450 3A4 (Homo sapiens, UniProt P08684);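 further: CYP3A4 tested as one member of a cytochrome P450 panel screen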
# Cytochrome P450 3A4, sequence (P08684 whole entry): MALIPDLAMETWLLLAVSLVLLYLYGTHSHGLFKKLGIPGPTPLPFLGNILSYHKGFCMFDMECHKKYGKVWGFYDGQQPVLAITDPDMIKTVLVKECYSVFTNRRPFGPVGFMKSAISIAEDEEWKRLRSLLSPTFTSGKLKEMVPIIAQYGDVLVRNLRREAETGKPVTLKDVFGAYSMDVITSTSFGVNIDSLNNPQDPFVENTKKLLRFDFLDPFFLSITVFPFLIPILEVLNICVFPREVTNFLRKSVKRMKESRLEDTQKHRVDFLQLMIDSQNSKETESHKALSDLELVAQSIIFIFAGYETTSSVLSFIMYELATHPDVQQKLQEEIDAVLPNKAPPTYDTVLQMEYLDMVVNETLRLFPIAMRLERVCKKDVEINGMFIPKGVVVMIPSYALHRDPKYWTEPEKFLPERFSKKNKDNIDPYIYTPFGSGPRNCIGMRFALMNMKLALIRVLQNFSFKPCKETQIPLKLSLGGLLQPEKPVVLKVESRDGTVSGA
compound,measurement,setting,value
COc1cc2c(-c3ccccc3)c(C)oc2cc1/C=N/NC(N)=S,EC50,[1],0.102 µM (active)
same,EC50,[2],> 60 µM (not active)
Cc1ccc(C)c(CN2CCCN(Cc3cc(C)ccc3C)S2(=O)=O)c1,EC50,[3],19.8 µM (active)
same,EC50,[4],> 150 µM (not active)
same,EC50,[5],19.7 µM (active)
O=C(c1cc(-c2ccc(Br)cc2)nc2ccccc12)N1CCN(c2ccccc2O)CC1,EC50,[3],7.53 µM (active)
same,EC50,[4],25.4 µM (inconclusive)
same,EC50,[5],29.2 µM (active)
Oc1nc2ccccc2n2cnnc12,EC50,[6],> 195 µM (not active)
O=C(c1ccco1)N(Cc1cc2ccccc2nc1O)C1CCCCC1,EC50,[6],> 195 µM (not active)
Cc1cc(/C=N/N2CCN(C)CC2)c(C)n1-c1ccccc1F,EC50,[1],1.81 µM (active)
same,EC50,[2],> 60 µM (not active)
COc1ccccc1C(=O)NCCC(=O)NNC(=O)Cn1ccc(C(F)(F)F)n1,EC50,[6],> 195 µM (not active)
C/C(=N\OC(=O)NC(C)C)c1sc(-c2ccc(Cl)cc2)nc1C,AC50,[7],31.6 µM (inconclusive)
Cc1cc(C)n(C(=O)CNC(=O)Cc2ccccc2)n1,EC50,[6],> 195 µM (not active)
CCN(CC)P(=O)(Nc1ccc(C)cc1Br)c1ccc(N(C)C)cc1NC(=O)c1ccco1 (stereo not drawn),EC50,[1],2.27 µM (active)
same,EC50,[2],> 60 µM (inconclusive)
CC1CC(c2ccccc2)n2nc(NC(=O)c3cccs3)nc2N1 (stereo not drawn),EC50,[6],> 195 µM (not active)
Cc1cc(C)cc(N(C(=O)Cc2cccs2)C(C(=O)NC2CCCCC2)c2ccccn2)c1 (stereo not drawn),AC50,[7],0.891 µM (inconclusive)
O=C(c1ccc(Cl)cc1Cl)C1(n2cncn2)Oc2ccccc2C1O (stereo not drawn),EC50,[1],0.535 µM (active)
same,EC50,[2],18 µM (active)
NC=C1C(=O)N(c2ccccc2)C(=O)N(c2ccccc2)C1=O,EC50,[6],> 195 µM (not active)
O=C(c1cnccn1)N1CCC[C@@]2(CCN(c3ncccn3)C2)C1,AC50,[7],15.8 µM (inconclusive)
C/C(=N/NC(=S)Nc1cccc(C)c1)c1cccc([N+](=O)[O-])c1,EC50,[1],1.63 µM (active)
same,EC50,[2],> 60 µM (not active)
C=CCOc1ccccc1CN1CCCC(CCC(=O)N(C)CCc2ccccn2)C1 (stereo not drawn),EC50,[1],0.412 µM (active)
same,EC50,[2],> 60 µM (not active)
NC(=O)c1ccsc1NC(=O)C1CCCCC1,EC50,[6],> 195 µM (not active)
COc1ccc2[nH]cc(CCNc3ncnc4ccc(-c5ccccc5OC)cc34)c2c1,AC50,[7],0.794 µM (inconclusive)
CC(Sc1nnnn1C)C(=O)Nc1ccc(Oc2ccccc2)cc1 (stereo not drawn),EC50,[6],> 195 µM (not active)
CCN(CC)CCOCCOc1cc(C)c(Cl)c(C)c1,EC50,[1],0.408 µM (active)
same,EC50,[2],9.47 µM (active)
COc1ccc(S(=O)(=O)NCC(c2cccnc2)N2CCN(C)CC2)cc1OC (stereo not drawn),EC50,[6],> 195 µM (not active)
CCc1nc(SCC(=O)NCCc2ccc(OC)c(OC)c2)c2c(=O)n(C)c(=O)n(C)c2n1,EC50,[6],> 195 µM (not active)
C[C@@H](c1ccccc1)N1C(=O)[C@H]2[C@H]3[C@H](O)[C@H](O)C/C(=N/OCc4ccccc4)[C@H]3CC[C@@H]2C1=O,AC50,[7],3.16 µM (inconclusive)
Cc1ccc(S(=O)(=O)N(C)c2ccccc2C(=O)NC2CCCC2)cc1,EC50,[6],> 195 µM (not active)
c1ccc(/C(=N/Nc2nc3ccccc3s2)c2ccccn2)cc1,AC50,[7],3.98 µM (inconclusive)
Cn1c(=O)c2nc(CCCc3ccc([N+](=O)[O-])cc3)[nH]c2n(C)c1=O,AC50,[7],3.98 µM (inconclusive)
CCCCn1c(SCC(=O)NCc2ccco2)nc2c(sc3ccccc32)c1=O,EC50,[6],> 195 µM (not active)
Cc1c(-c2ccccc2)[n+]([O-])c2c([n+]1[O-])CCC2,EC50,[6],> 195 µM (not active)
CSc1nc(SCC(=O)NC(c2ccccc2)c2ccccc2)c2c3c(sc2n1)CN(C)CC3,EC50,[1],0.237 µM (active)
same,EC50,[2],> 60 µM (not active)
CCC(C)C(NC(=O)C1CCC(=O)N1C(=O)OCc1ccccc1)C(=O)NC(C(=O)N1CCCC1C(N)=O)C(C)CC (stereo not drawn),EC50,[6],> 195 µM (not active)

# Source: ChEMBL document CHEMBL1201862, “PubChem BioAssay data set” (2004)
